The subject of data set [1] is TNF-a-stimulated IL8 secretion. In words: Suppression of inflammation (summary table; IL-8 secretion). The conditions noted are these: summary of peptide uses. More on the design: key: P = active; U = useful. In kind it is cell-based, human. As for the experimental part:
(§1) Analysis of IL-8 Secretion • Human corneal epithelial cells or dermal Fb were cultured to 80% confluence • Cells were pre-treated with 1 μg/ml Tb4 or peptides for one hour • Cells were stimulated with 10 ng/ml TNF-a in the presence or absence of Tb4 or peptides • Culture medium was analyzed for secreted IL-8 by ELISA (n=3, experiments repeated twice) • Data was analyzed using the t-test

A further data set deals with L1. Kind of data set: Stimulation of L1 production (summary table). The conditions noted are these: summary of peptide uses. Also noted: key: P = active; U = useful.
Data set [2] relates to human dermal fibroblasts. In words: LDH cytotoxicity assay in human dermal fibroblasts exposed to cytotoxic agents. It counts as cell-based. Also noted: key to Protects from cytotoxicity: P = active; U = useful. The conditions noted are these: for Protects from cytotoxicity: summary of peptide uses. As for the experimental part:
Dose Response Analysis of Peptide 3A • Human dermal fibroblasts (Fb, Cascade Biologics, OR) were cultured to 80% confluence • 2 ml CHX (0.002%) in basal medium ±1 μg/ml Tb4 or 1.0, 0.1, 0.01, or 0.001 μg/ml peptide 3A was added to Fb for 1, 2, 3, or 4 hours • 100 μl culture medium (n=4) was added to 100 μl LDH reagent and incubated at room temperature for 20 minutes • OD500 nm was read and averages ±SEM were calculated • Data was analyzed with probability of p≦0.05

The subject of the next data set is dermal Fb. In words: TNF-a-stimulated IL-8 secretion ELISA, dermal fibroblasts. In kind it is cell-based, human. The conditions noted are these: 1 μg/ml, 10 ng/ml TNF-a. As for the experimental part: as §1
Data set [3] relates to human gingival fibroblasts. Kind of data set: CHX-induced cytotoxicity in human gingival fibroblasts. It counts as cell-based.
Data set [4] deals with human gingival fibroblasts. Kind of data set: CHX-induced apoptosis in human gingival fibroblasts. In kind it is cell-based. The conditions noted are these: 0.002% CHX for 2 hours.
Data set [5] relates to tissue damage caused by UV radiation. In words: UV radiation tissue damage (summary table). Also noted: key: P = active; U = useful. The note with it: summary of peptide uses.
In the next data set the test system is neurite outgrowth. In words: Promotion of neurite outgrowth (summary table). Also noted: key: P = active; U = useful. The conditions noted are these: summary of peptide uses.
The next data set deals with human dermal Fb. In words: CHX-induced apoptosis (APOPercentage dye) in human dermal Fb. The note with it: for Protection of dermal Fb against CHX-induced apoptosis: 1 μg/ml, 0.002% CHX for 2 hours; for Inhibits apoptosis: summary of peptide uses. In kind it is cell-based. More on the design: key to Inhibits apoptosis: P = active; U = useful. As for the experimental part:
Effect of Tb4 and Peptide 3A on CHX-induced apoptosis • Human dermal Fb were cultured to 80% confluence • Fb were treated with 0.002% CHX+1 μg/ml Tb4 or peptide 3A, 4A or 6A for 1.5 hours • APOPercentage “dye” was added to the Fb cultures at a 1:50 dilution for an additional 30 minutes • Excess dye was washed from the cells, and digital images were captured. Cells dyed red were apoptotic • Adobe Photoshop was used to calculate the number of red pixels in six digitized images for each treatment • Statistical analysis was done using the t-test

The subject of another data set is neuron survival. In words: Promotion of neuron survival (summary table). More on the design: key: P = active; U = useful. The conditions noted are these: summary of peptide uses.
Another data set has as its system cell migration. In words: Stimulation of migration (summary table). It counts as cell-based. Also noted: key: P = active; U = useful. The conditions noted are these: summary of peptide uses.
The test system of data set [6] is p65 subunit of NFkB in human corneal epithelial cells. In words: NFkB nuclear translocation. It counts as cell-based. The conditions noted are these: summary of peptide uses. More on the design: key: P = active; U = useful. As for the experimental part:
Analysis of NFkB Nuclear Translocation • Human corneal epithelial cells were cultured to 80% confluence • Cells were pre-treated with 1 μg/ml Tb4 or peptide 4A or 6A for one hour • Cells were stimulated with 10 ng/ml TNF-a in the presence or absence of Tb4 or peptides for 15 minutes • Cells were fixed and labeled with antibodies to the p65 subunit of NFkB

Data set [7] relates to Human corneal epithelial cells. In words: TNF-a-stimulated IL-8 secretion ELISA, corneal epithelial cells. In kind it is cell-based. The note with it: 1 μg/ml, 10 ng/ml TNF-a. As for the experimental part:
as §1

For another data set, the system named is T-lymphocyte. Kind of data set: Impaired T-lymphocyte blastogenic response (summary table). More on the design: key: P = active; U = useful. The note with it: summary of peptide uses.
In data set [8] the test system is human dermal fibroblasts. Kind of data set: Elastin secretion, colorimetric assay. It counts as cell-based. Also noted: key to Stimulates Elastin: P = active; U = useful. As for the experimental part: Effect of Tb4 and peptides on elastin secretion • Human dermal fibroblasts (Fb) were cultured to 80% confluence • Cells were treated with 1 μg/ml Tb4 or peptides for 24, 48, or 72 hours. Cells were treated once/day. • Culture supernatants (n=3, experiments repeated 6 times) were assayed for elastin secretion using a colorimetric assay • Data was analyzed using the t-test

Where [9] appears, read: 1 μg/ml, 0.002% CHX, 1, 2, or 3 hours exposure.
[10] abbreviates: 1 μg/ml, 0.002% CHX, 2 hour exposure.

“Also recorded” adds a separate entry of the source.

The values below come from US20150203561A1, “BETA THYMOSIN FRAGMENTS” (REGENERX BIOPHARMACEUTICALS, INC., priority 2008, published 2015).

For the substance H-SDKPDMAEIEKFDKS-OH [Peptide 3A], the Suppresses inflammation entry in [1] is “P”. In addition, the “Stimulates L1 production” value in the data set on L1 is given as “U”. The “Protection of Fb against the cytotoxic effects of CHX (LDH), dose response analysis” value in the data set with human dermal fibroblasts [2] (1.0 μg/ml peptide, 0.002% CHX, 2 hours) is reported as “protects”. For the same substance, in the data set on human dermal fibroblasts [2] (setting [9]), the “Protection of Fb against the cytotoxic effects of CHX (LDH)” value is “protect”. Besides, the “Protection of Fb against the cytotoxic effects of CHX (LDH)” value with human dermal fibroblasts [2] (setting [10]) is “protect”. For the same substance, in the data set on human dermal fibroblasts [2] (0.002% and 0.005% CHX, 2 hours exposure), the “Protection of Fb against the cytotoxic effects of CHX (LDH)” value is “protects”. Moreover, the “Protection of Fb against the cytotoxic effects of benzalkonium chloride (LDH)” value in the data set on human dermal fibroblasts [2] (0.01% benzalkonium chloride) is “protects”. Further, the “Protection of Fb against the cytotoxic effects of hydrogen peroxide (LDH)” value in the data set on human dermal fibroblasts [2] (1% hydrogen peroxide) was “protects”. Besides, the “Protection of Fb against the cytotoxic effects of ethanol (LDH)” value with human dermal fibroblasts [2] (10% ethanol) is recorded as “does not protect”. Further, the “Inhibition of chlorhexidine digluconate, hydrogen peroxide, and benzalkonium chloride-induced cytotoxicity” value with human dermal fibroblasts [2] (cultured human dermal fibroblasts, up to 4 hours exposure) was “can inhibit”. The Protects from cytotoxicity result in the data set on human dermal fibroblasts [2] is “P”. Besides, the “Suppression of TNF-a-stimulated IL8 secretion” value (“Suppression” for short) in the data set on dermal Fb is given as “suppress”. Besides, the “Protection of gingival Fb against cytotoxicity induced by CHX” value in data set [3] (0.002% CHX) is on record as “protects”. Moreover, the “Inhibition of chlorhexidine digluconate and Peridex induced cytotoxicity” value in data set [3] (cultured human gingival fibroblasts, Peridex diluted to 0.002% CHX) is on record as “can inhibit”. The “Protection of gingival Fb against CHX-induced apoptosis” value in [4] was “protect; also recorded: can inhibit”. In data set [5], the “Inhibits tissue damage caused by UV radiation” value (“Inhibits tissue damage caused” for short) is given as “U” and the “Protects tissue from UV radiation damage” value is “U”. Moreover, the Promotes neurite outgrowth entry in the data set with neurite outgrowth is “U”. Moreover, in the data set with human dermal Fb, the “Protection of dermal Fb against CHX-induced apoptosis” value is reported as “protect; also recorded: can inhibit” and the Inhibits apoptosis entry is “P”. In the data set on neuron survival, the Promotes neuron survival result is “U”.

In the case of Thymosin β4 [Tb4, reference compound], the Suppresses inflammation result in data set [1] is reported as “P”. The “Stimulates L1 production” value in the data set on L1 is “P”. The “Protection of Fb against the cytotoxic effects of CHX (LDH)” value in the data set with human dermal fibroblasts [2] (setting [9]) is given as “protect”. In the data set with human dermal fibroblasts [2] (setting [10]), the “Protection of Fb against the cytotoxic effects of CHX (LDH)” value was “protect”. The Protects from cytotoxicity result in the data set on human dermal fibroblasts [2] is on record as “P”. Moreover, the “Stimulates Migration” value in the data set with cell migration was “P”. For the same substance, the “Suppression” value in the data set with dermal Fb is reported as “suppress”. Besides, the “Protection of gingival Fb against CHX-induced apoptosis” value in [4] is “protect”. Also, in data set [5], the “Inhibits tissue damage caused” value is recorded as “P” and the “Protects tissue from UV radiation damage” value is “P”. Further, the “Inhibits NFkB translocation” value in [6] is recorded as “P”. Further, the Promotes neurite outgrowth result in the data set on neurite outgrowth is listed as “P”. Moreover, in data set [7], the “Suppression” value is given as “suppress”. In the data set on T-lymphocyte, the “Restores impaired T-lymphocyte blastogenic response” value was “P”. In the data set with human dermal Fb, the “Protection of dermal Fb against CHX-induced apoptosis” value is on record as “protect” and the Inhibits apoptosis result was “P”. In addition, in the data set on human dermal fibroblasts [8] (dermal Fb, 1 μg/ml once/day, 24, 48, or 72 hours), the Secretion of elastin entry is on record as “stimulate”. Besides, the “Stimulates Elastin” value in the data set with human dermal fibroblasts [8] (summary of peptide uses) is reported as “P”. Also, the Promotes neuron survival entry in the data set with neuron survival is recorded as “P”.

Turning to “H-Leu-Lys-Lys-Thr-Glu-Thr-OH (H-LKKTET-OH) [Peptide 1A]”, the Suppresses inflammation result in data set [1] is “P”. In addition, in the data set on L1, the “Stimulates L1 production” value was “U”. For the same substance, in [5], the “Inhibits tissue damage caused” value is recorded as “U” and the “Protects tissue from UV radiation damage” value was “U”. Moreover, the Promotes neurite outgrowth result in the data set on neurite outgrowth is reported as “U”. For the same substance, in [7], the “Suppression” value is reported as “suppress”. In addition, in the data set with neuron survival, the Promotes neuron survival result is recorded as “U”.
